# Reference: patent US20180271888A1, “COMPOSITIONS AND METHODS FOR PARKINSON'S DISEASE THERAPY” (priority 2017, published 2018)
# Where two headings read alike, the source gives them in different places.
# Assays:
# [1] = tested on: TH; assay: TH expression in striatum after 6-OHDA lesioning; format: in vivo, mouse; conditions: 6-OHDA 4 mg/mL, 2 μL unilateral, lesioned vs unlesioned side
# Procedure: (§1) Protein samples of 50 lg ran on 10% sodium dodecyl sulfate-polyacrylamide gel electrophoresis gels and transferred onto polyvinylidine diflouride membranes using semi-dry transfer method (Trans turbo blot; BioRad Laboratories, Hercules, Calif., USA). Striatal samples from WT and P2X4R KO mice were made to run on the same gel and transferred onto the same membrane. Nonspecific binding was blocked by incubation in 5% non-fat dry milk, followed by incubation with primary antibodies overnight at 4° C. The antibodies used were rabbit anti-TH (1:5000), mouse anti-DAT (1:1000), rabbit anti-D2 receptor (1:1000), rabbit anti-DARPP-32 (1:1000) (Millipore), rabbit anti-D1 receptor (1:500; SantaCruz biotechnology, Santacruz, Calif., USA), mouse anti-total ERK 1/2 (1:1000), rabbit anti-total CREB (1:1000) (Cell Signaling Technology, Beverly, Mass., USA), mouse anti-β-actin (1:20 000; Sigma-Aldrich), and mouse anti-α-tubulin (1:10 000; Millipore). The antibodies for phospho proteins included rabbit antiphospho-Thr34-DARPP-32 (1:400; Millipore), rabbit anti-phospho-Ser133-CREB (1:500), rabbit anti-diphospho-Thr202/Tyr204-ERK 1/2 (1:500) (Cell Signaling Technology). Secondary antibodies included goat anti-mouse and goat anti-rabbit antibodies (1:10 000; BioRad Laboratories). […] Protein quantification was carried out by optical densitometry using ImageJ software (NIH, Bethesda, Md., USA). […]
# [2] = cited from earlier work
# [3] = tested on: DARPP-32; assay: Western immunoblotting of total and phosphorylated DARPP-32 in striatum after IVM; format: in vivo, mouse
# Procedure: (§2) The dorsal and ventral striata were dissected from P2X4R KO and WT mice following killing with CO2 asphyxiation. […] The dorsal and ventral striata were dissected out as per the neuroanatomical landmarks described in the mouse brain atlas (Franklin, B. J. and Paxinos, G. (2007) The Mouse Brain in Stereotaxic Coordinates. Elsevier Academic Press, Amsterdam). The brain tissues were homogenized in a buffer containing 50 mM Tris-HCl pH (8.0), 150 mM NaCl, 1 mM EDTA, 0.1% sodium dodecyl sulfate, 1/100 dilution proteinases inhibitor cocktail (Millipore, Temecula, Calif., USA), and protein content was determined using bicinchoninic acid assay kit (Thermo Scientific, Rockford, Ill., USA). Homogenates were treated with a cocktail of phosphatase inhibitors (1 mM sodium pyrophosphate, 10 mM sodium fluoride, 0.5 mM sodium orthovandate, 10 mM β-glycerol phosphate, 1 μM microcysteine LR) (Sigma-Aldrich) for detection of phosphoproteins.
# Protein samples of 50 lg ran on 10% sodium dodecyl sulfate-polyacrylamide gel electrophoresis gels and transferred onto polyvinylidine diflouride membranes using semi-dry transfer method (Trans turbo blot; BioRad Laboratories, Hercules, Calif., USA). Striatal samples from WT and P2X4R KO mice were made to run on the same gel and transferred onto the same membrane. Nonspecific binding was blocked by incubation in 5% non-fat dry milk, followed by incubation with primary antibodies overnight at 4° C. The antibodies used were rabbit anti-TH (1:5000), mouse anti-DAT (1:1000), rabbit anti-D2 receptor (1:1000), rabbit anti-DARPP-32 (1:1000) (Millipore), rabbit anti-D1 receptor (1:500; SantaCruz biotechnology, Santacruz, Calif., USA), mouse anti-total ERK 1/2 (1:1000), rabbit anti-total CREB (1:1000) (Cell Signaling Technology, Beverly, Mass., USA), mouse anti-β-actin (1:20 000; Sigma-Aldrich), and mouse anti-α-tubulin (1:10 000; Millipore). The antibodies for phospho proteins included rabbit antiphospho-Thr34-DARPP-32 (1:400; Millipore), rabbit anti-phospho-Ser133-CREB (1:500), rabbit anti-diphospho-Thr202/Tyr204-ERK 1/2 (1:500) (Cell Signaling Technology). Secondary antibodies included goat anti-mouse and goat anti-rabbit antibodies (1:10 000; BioRad Laboratories). Bands were visualized using chemiluminescence method (Clarity western plus enhanced chemiluminescence substrate; BioRad Laboratories) followed by exposure to HyBlot autoradiography films (Denville Scientific, Metuchen, N.J., USA). Protein quantification was carried out by optical densitometry using ImageJ software (NIH, Bethesda, Md., USA). Protein densities were normalized to β-actin or α-tubulin levels.
# (§3) For the western blotting analysis, the average of densitometry values of WT striatal samples was used to arbitrarily normalize WT samples to 1 and the P2X4R KO striatal samples were normalized by dividing each densitometry value by the average of WT samples. […] Normalized density of proteins was expressed as mean±SEM. Phosphorylation was calculated as ratio of normalized values of phosphorylated form to total form of protein. DA levels were expressed as ng/mg of protein content. […] Pharmacological studies for motor behavior and sensorimotor gating were analyzed by two-way repeated measures ANOVA with time/PPI intensity and genotype/treatment as within and between-subjects variability, respectively, followed by Bonferroni post hoc test for multiple comparisons. […]
# [4] = tested on: ERK 1/2; assay: Western immunoblotting of total and phosphorylated ERK 1/2 in striatum after IVM; format: in vivo, mouse
# Procedure: as §2
# as §1, with “Millipore).” for “Millipore). The antibodies for phospho proteins included rabbit antiphospho-Thr34-DARPP-32 (1:400; Millipore), rabbit anti-phospho-Ser133-CREB (1:500), rabbit anti-diphospho-Thr202/Tyr204-ERK 1/2 (1:500) (Cell Signaling Technology). Secondary antibodies included goat anti-mouse and goat anti-rabbit antibodies (1:10 000; BioRad Laboratories).”
# as §3
# [5] = tested on: WT and P2X4R KO mice; conditions: Bortolato et al. 2013, cited from earlier work
# [6] = tested on: 6-OHDA lesioned WT and P2X4R KO mice; assay: L-DOPA-induced rotational behavior in the 6-OHDA model of DA depletion (Example 1); format: in vivo, mouse
# Procedure: Mice were treated with desipramine hydrochloride (25 mg/kg, i.p.) (Sigma-Aldrich) 30 min prior to surgery to prevent concurrent damage of noradrenergic pathways by 6-OHDA. Mice were anesthetized with avertin ([…], i.p.) and placed in the stereotaxic apparatus. Two μL of freshly prepared 6-OHDA bromide salt (4 mg/mL in 0.2% ascorbic acid and 0.9% saline; Sigma-Aldrich) was unilaterally infused into left median forebrain bundle (from Bregma point: 1.2 mm posterior, 1.1 mm lateral, 5 mm ventral) (Franklin, B. J. and Paxinos, G. (2007) The Mouse Brain in Stereotaxic Coordinates. Elsevier Academic Press, Amsterdam) at a rate of 0.5 μL/min using a 10 μL Hamilton syringe and a microlitre syringe pump. The injection cannula was left in place for 3-5 min to prevent reflux and ensure complete absorption. Post-operative procedures involved daily subcutaneous (s.c.) injections with sucrose (5% w/v in saline) and warming on a heating pad for 2 weeks.
# Mice were subjected to behavioral testing 3 weeks after 6-OHDA lesioning surgery. Mice were placed in a plastic cylinder (318 mm in diameter) with a video camera mounted above it. Baseline rotational behavior was established by saline injections which causes the mouse to rotate toward the lesioned side with lesser DA activity (ipsilateral rotations). L-DOPA (5 mg/kg, s.c.) was administered 5 min prior to behavioral testing and the number of contralateral and ipsilateral rotations were counted in every 10-minute interval for a total period of 90 min.
# For the western blotting analysis, the average of densitometry values of WT striatal samples was used to arbitrarily normalize WT samples to 1 and the P2X4R KO striatal samples were normalized by dividing each densitometry value by the average of WT samples. Normalization of the two genotypes was done within the same membrane and presented as fold change of P2X4R KO versus WT in that membrane. For D1, D2, DARPP-32, ERK 1/2, and CREB immunoblotting; WT and P2X4R KO mice were generated in separate cohorts. The normalization of P2X4R KO to WT samples was done within the same cohort followed by combining data from two cohorts for analyses. […] Normalized density of proteins was expressed as mean±SEM. Phosphorylation was calculated as ratio of normalized values of phosphorylated form to total form of protein. DA levels were expressed as ng/mg of protein content. Unpaired Student t-test was used for analyzing the differences in protein densities and DA levels between WT and P2X4R KO groups. […] Pharmacological studies for motor behavior and sensorimotor gating were analyzed by two-way repeated measures ANOVA with time/PPI intensity and genotype/treatment as within and between-subjects variability, respectively, followed by Bonferroni post hoc test for multiple comparisons. Significance was set at p<0.05. All data were analyzed using GraphPad Prism software (San Diego, Calif., USA).
# [7] = tested on: CREB; assay: Western immunoblotting of total and phosphorylated CREB in striatum after IVM; format: in vivo, mouse; conditions: effect of IVM treatment 5 mg/kg
# Procedure: as §2
# as §1, with “Millipore).” for “Millipore). The antibodies for phospho proteins included rabbit antiphospho-Thr34-DARPP-32 (1:400; Millipore), rabbit anti-phospho-Ser133-CREB (1:500), rabbit anti-diphospho-Thr202/Tyr204-ERK 1/2 (1:500) (Cell Signaling Technology). Secondary antibodies included goat anti-mouse and goat anti-rabbit antibodies (1:10 000; BioRad Laboratories).”
# as §3
# [8] = tested on: WT and P2X4R KO mice; assay: Prepulse inhibition (PPI) of acoustic startle reflex; format: in vivo, mouse
# Procedure: Acoustic startle reflex and PPI were tested as previously described (Wyatt, L. R. et al. (2013) Neuropsychopharmacology 38:1993-2002). The apparatus used for detection of startle reflex (San Diego Instruments, San Diego, Calif., USA) consisted of a standard cage placed in sound attenuated chambers with fan ventilation. Each cage consisted of a Plexiglass cylinder of 3 cm diameter, mounted on piezoelectric accelerometric platform connected to an analog-digital converter. Background noise and acoustic bursts were conveyed by two separate speakers, each one oriented appropriately so as to produce a variation in sound within 1 dB across the startle cage. Both speakers and startle cages were connected to the main PC, which detected and analyzed all chamber variables with Startle software (San Diego Instruments). Before each testing session, acoustic stimuli were calibrated via a digital sound level meter.
# During the baseline session, mice were exposed to background noise of 70 dB and, after an acclimatization period of 5 min, were presented with 12 40 ms trials of 115 dB interposed with three trials of a 82 dB pre-stimulus preceding the 115 dB by 100 ms. […] Delta PPI (APPI) was calculated as mean startle amplitude for pulse alone trials—(mean startle amplitude for prepulse trial). […]
# as §3
# [9] = ventral striatum, main effect of IVM treatment 5 mg/kg, treatment×genotype interaction significant (p<0.05)
# [10] = ventral striatum, effect of IVM treatment 5 mg/kg
compound,measurement,setting,value
"NCCc1cc(O)c(O)cc1O [6-OHDA, 6-hydroxydopamine]",reduced TH expression in the striatum,[1]; P2X4R KO mice,96.3%
same,reduced TH expression in the striatum,[1]; WT mice,95.7%
"C[C@@](Cc1ccc(O)c(O)c1)(NN)C(=O)O.O [Carbidopa, N-amino-α-methyl-3-hydroxy-L-tyrosine monohydrate]",solubility in water,[2],slightly soluble
"CC[C@H](C)[C@H]1O[C@]2(CC[C@@H]1C)C[C@@H]1C[C@@H](C/C=C(\C)[C@@H](O[C@H]3C[C@H](OC)[C@@H](O[C@H]4C[C@H](OC)[C@@H](O)[C@H](C)O4)[C@H](C)O3)[C@@H](C)/C=C/C=C3\CO[C@@H]4[C@H](O)C(C)=C[C@@H](C(=O)O1)[C@]34O)O2 [IVM, ivermectin]",DARPP-32 phosphorylation,"[3]; dorsal striatum, P2X4R KO mice, IVM 5 mg/kg i.p., 8 h post-drug",did not increase
same,DARPP-32 phosphorylation,"[3]; dorsal striatum, WT mice, IVM 5 mg/kg i.p., 8 h post-drug, vs vehicle, Bonferroni p<0.05",significant increase
same,total DARPP-32 levels,"[3]; dorsal striatum, main effect of IVM treatment (5 mg/kg i.p.), treatment×genotype interaction significant",no significant effect
same,DARPP-32 phosphorylation,[3]; [9],no significant effect
same,total DARPP-32 levels,[3]; [9],no significant effect
same,ERK 1/2 phosphorylation,"[4]; dorsal striatum, IVM 5 mg/kg, both genotypes (independent of P2X4R function)",increased
same,total ERK 1/2 levels,"[4]; dorsal striatum, main effect of IVM treatment, treatment×genotype interaction significant",no significant effect
same,ERK 1/2 phosphorylation,[4]; [10],no significant effect
same,total ERK 1/2 levels,[4]; [10],no significant effect
same,PPI (effect of IVM),[5]; P2X4R KO mice,attenuated response
same,PPI (effect of IVM),[5]; WT C57BL/6J mice,PPI disruption
same,L-DOPA induced motor behavior (contralateral rotations),"[6]; 6-OHDA P2X4R KO mice, IVM 5 mg/kg + L-DOPA 5 mg/kg vs L-DOPA alone, during the 5-15 min interval",significant increase
same,number of L-DOPA-induced rotations (contralateral),"[6]; 6-OHDA WT mice, IVM 5 mg/kg i.p. 8 h prior + L-DOPA 5 mg/kg s.c. vs L-DOPA alone, significant 5-65 min",significantly increased
same,rotations induced by IVM alone (ipsilateral),"[6]; 6-OHDA WT mice, IVM 5 mg/kg i.p. 8 h prior, average for 2 hours, SEM ±2, significant vs sham controls",12 rotations
same,CREB phosphorylation,[7]; dorsal striatum,no significant effect
same,total CREB levels,[7]; dorsal striatum,no significant effect
same,total CREB levels,[7]; ventral striatum,no significant effect
same,CREB phosphorylation,"[7]; ventral striatum, interaction trended toward significance",no significant effect
"N[C@@H](Cc1ccc(O)c(O)c1)C(=O)O [L-DOPA, L-3,4-didhydrophenylalanine]",rotational behavior with L-DOPA treatment,"[6]; L-DOPA 5 mg/kg s.c., 6-OHDA lesioned WT and P2X4R KO mice",exhibited contralateral rotations
same,"L-DOPA-induced contralateral turns, P2X4R KO compared to WT mice","[6]; L-DOPA 5 mg/kg, significant during the 45-55 min interval",significantly fewer
CCN1CCC[C@H]1CNC(=O)c1c(O)c(Cl)cc(Cl)c1OC [raclopride],PPI of acoustic startle reflex,"[8]; P2X4R KO mice vs saline, SCH-23390 1 mg/kg i.p. or raclopride 3 mg/kg i.p., 10 min prior, significant at PPI 6 and PPI 12",significantly enhanced
same,startle amplitude,"[8]; P2X4R KO mice, SCH-23390 1 mg/kg or raclopride 3 mg/kg",without any changes
same,PPI function,"[8]; WT mice, SCH-23390 1 mg/kg or raclopride 3 mg/kg i.p.",no significant changes
